Usually inhibition stands for the change of the read-out against control, counted positive when it falls. For orientation: IC50 means the midpoint of a concentration-inhibition curve.

Here are results for 8 molecules from patent US20070208043A1, “Use of Serum Amyloid A Gene in Diagnosis and Treatment of Glaucoma and Identification of Anti-Glaucoma Agents” (ALCON, INC., priority 2003, published 2007).

Entries after “also recorded” stand apart in the source; their conditions may differ. Where two headings read alike, the source gives them in different places.

Series [1] deals with SAA induced IL-8 secretion in TM cells. The series is described as follows: Inhibition of SAA induced IL-8 secretion in TM cells (IL-8 in media by ELISA). It is filed as cell-based. The protocol:
FIG. 11. Effect of MAP p38 kinase inhibitors on induction of IL-8 by SAA treatment (1 μg/ml) in TM cells. […] IL-8 was measured in the media by ELISA.
(§1) FIG. 12. […] NTM650-03, p9 or HL-60 cells were treated in serum-free DMEM for 4 hours with 1 μg/ml SAA and the indicated concentrations of SB202580. IL-8 was measured in the media by ELISA.
(§2) One pathway for upregulation of IL-8 is through activation of MAP kinases.

In another series the test system is plasma SAA concentration. The settings on record: in vivo; cited from earlier work.
For series [2], the system named is SAA stimulated IL-8 secretion in HL-60 cells. The series is described as follows: Inhibition of SAA stimulated IL-8 secretion in HL-60 cells (IL-8 in media by ELISA). It is filed as cell-based. The note with it: for Times more effective than SB203580: HL60 cells, inhibition curves; for IC50: Homo sapiens, read-out: Calculated IC50, inhibition of SAA stimulated IL-8 secretion. The protocol: as §1
FIG. 13. […] IL-8 was measured in the media by ELISA.
as §2

The test system of series [3] is Adv.SAA2-induced IOP in mouse. As to the kind of experiment: Mouse IOP after intravitreal injection of Adv.SAA2 + anti-CD40L; topical p38 MAPK inhibitor. The settings on record: topical 1% b.i.d. Here is the method:
Contralateral eye of each animal was not injected. In addition to Adv, each animal received IP injection of anti-CD40L (0.5 mg/injection) on days −1, 0, 1, 2, 5, 9, & 14 to prolong the expression period of the Adv.SAA2. Mouse IOP was measured by Tonolab in a mask way. Mean of IOP for each eye was obtained from 18 to 30 measurements.

In another series the test system is HL-60 cells. As to the kind of experiment: IL-8 secretion by HL-60 cells in response to rhSAA. The format is cell-based. The settings on record: four hours, increasing concentrations. The protocol: FIG. 5. IL-8 secretion by HL-60 cells in response to increasing concentrations of rhSAA.
Cytokine-like properties of SAA include induction of IL-8 secretion by neutrophils. (Furlaneto and Campa, 2002; He et al. 2003). HL-60 cells, a promyelocytic cell line, was identified that responds to SAA with increased IL-8 secretion, and can be used for in vitro assays of SAA function. HL-60 cells were treated for four hours with increasing concentrations of recombinant human SAA, and IL-8 was measured in the media by ELISA. […] HL-60 cells can be used as a surrogate cell line for functional assays to identify agents that alter SAA function and expression levels.

Series [4] deals with perfused human anterior segments. The series is described as follows: Perfusion cultured human eyes treated with recombinant SAA. The settings on record: 1 μg/mL, all five eyes. Here is the method: FIG. 9. Effect of recombinant human Serum Amyloid A (rhSAA, 1 μg/mL; treatment started at time 0) on IOP of perfused human anterior segments.
FIG. 10. Effect of recombinant human Serum Amyloid A (rhSAA, 1 μg/mL; treatment started at time 0) on interleukin-8 (IL-8) level in the perfusate of perfused human anterior segments.
Five pairs of human eyes were perfused with media containing either recombinant SAA (1 μg/mL) (experimental eye) or an equivalent volume of vehicle (control eye). At the end of the culture period, 4 quadrants of each eye were examined by transmission electron microscopy to determine TM tissue viability. Perfusate of each eye was collected and used for ELISA measurement of IL-8 level. […] The change in IOP correlated with SAA-induced increase in interleukin-8 in the perfusates. All five pairs of eyes had acceptable post-perfusion TM viability scores.

[5] abbreviates: 50 μM, TM cells, read-out: % Inhibition of SAA induced IL-8 secretion.
[6] abbreviates: 10 μM, TM cells, read-out: % Inhibition of SAA induced IL-8 secretion.
Where [7] appears, read: read-out: % Inhibition of SAA induced IL-8 secretion.
Setting [8] is: 1 μM, TM cells, read-out: % Inhibition of SAA induced IL-8 secretion.

For the molecule `COc1cccc(-c2cc(=O)c3ccccc3o2)c1N` [PD98059, 2′-amino-3′-methoxyflavone], in series [1] (setting [5]), the inhibition at 50 µM worked out at 34%.
In the case of `Cc1cccc(Nc2cc(Cl)nc(SCC(=O)O)n2)c1C` [WY 14643, (4-chloro-6-(2,3-xylidino)-2-pryrimidinylthiol)-acetic acid], in the series on plasma SAA concentration, the “Plasma SAA concentration” value is on record as “reduces”.
`Cc1ccc(-n2nc(C(C)(C)C)cc2NC(=O)Nc2ccc(OCCN3CCOCC3)c3ccccc23)cc1` [BIRB-796, 1-(5-tert-butyl-2-p-tolyl-2H-pyrazol-3-yl)-3(4-(2-morpholin-4-yl-ethoxy)naph-thalen-1-yl)urea]: in series [2], the “Times more effective than SB203580” value is given as “approximately 10 times”. Also, in series [2] (HL-60 cells, serum-free DMEM, 4 hours, 1 μg/ml SAA), the IC50 was 500 nM. Besides, the inhibition at 10 µM in series [1] (setting [6]) came to 28.9%. Further, the inhibition at 50 µM in series [1] (setting [5]) is 78.1%. In addition, the “Inhibition of SAA induced IL-8 expression (in words)” value (from here on “Inhibition … (in words)”) in series [1] (TM cells) is recorded as “most potent”.
In the case of `C[S+]([O-])c1ccc(-c2nc(-c3ccc(F)cc3)c(-c3ccncc3)[nH]2)cc1` (stereo not shown) [SB203580, 4-(4-fluorophenyl)-2-(4-methylsulfinylphenyl)-5-(4-pyridyl)-1H-imidazole], in series [1] (TM cells), the “Inhibition … (in words)” value is “most potent”. In series [1] (setting [7]), the inhibition at 1 µM came out at 16.3%, the inhibition at 10 µM was 38.1%, the inhibition at 25 µM was determined as 61% and the inhibition at 50 µM worked out at 73.8%. The inhibition at 100 µM in series [1] (setting [7]) was determined as 98.7%.
Take `Fc1ccc(-c2c(-c3ccncc3)[nH]c3cccnc23)cc1` [4-azaindole, 3-(4-fluorophenyl)-2-(pyridin-4-yl)-1H-pyrrolo[3,2-b]pyridine]: the “Times more effective than SB203580” value in series [2] is given as “approximately 10 times”. Further, the IC50 in series [2] (HL-60, 4 h) is 300 nM. The “Effect on IOP in the non-injected eyes” value in series [3] is “did not affect IOP”. In series [3] (days -1 to 7 and 13 to 17, Ad.SAA2 2×10^7 pfu/eye + antiCD40L), the “Effect on Ad.SAA2-induced ocular hypertension (IOP)” value is reported as “significantly inhibited; also recorded: blocked”. The “Effect on iris hyperemia in the injected eyes” value in series [3] (Ad.SAA2-injected eyes) is listed as “did not affect hyperemia”. In series [3] (Ad.SAA2-injected mouse eyes), the “Time to lower IOP to baseline after drug administration was resumed at day 13” value is 3 days. Moreover, the “Inhibition … (in words)” value in series [1] (TM cells) was “most potent”. In addition, in series [1] (setting [7]), the inhibition at 10 µM is 22.6% and the inhibition at 50 µM came out at 94.3%.
As for `N#CC(=C(/N)Sc1ccccc1N)/C(C#N)=C(/N)Sc1ccccc1N` [U0126, 1,4-diamino-2,3-dicyano-1,4-bis(2-aminophynyltio)butadiene], in series [1] (setting [8]), the inhibition at 1 µM was determined as 30.9%. The inhibition at 10 µM in series [1] (setting [6]) came to 50.6%. Also, the inhibition at 50 µM in series [1] (setting [5]) was 53%.
Turning to `Oc1ccc(-c2nc(-c3ccc(F)cc3)c(-c3ccncc3)[nH]2)cc1` [SB202190, 4-[4-(4-fluorophenyl)-5-(4-pyridinyl)-1H-imidazol-2-yl]phenol], the inhibition at 1 µM in series [1] (setting [8]) was found to be 17.2%. Also, the inhibition at 10 µM in series [1] (setting [6]) came out at 43.3%. Besides, the inhibition at 50 µM in series [1] (setting [5]) was found to be 38.2%.

B1: recombinant SAA: recombinant human Serum Amyloid A protein (protein, UniProt P0DJI8 19-122, looked up)
Serum amyloid A-1 protein: RSFFSFLGEAFDGARDMWRAYSDMREANYIGSDKYFHARGNYDAAKRGPGGAWAAEVITDARENIQRFFGHGAEDSLADQAANEWGRSGKDPNHFRPAGLPEKY
Regarding B1, the IL-8 secretion result in the series on HL-60 cells was “increased in a dose dependent manner”. For the same molecule, the “IL-8 level in perfusate” value in series [4] is listed as “elevated IL-8 level”. In addition, in series [4] (within 24 h of treatment), the “IOP of perfused human eyes” value was “elevated IOP”.
